Data: paper PMC8514580, “Insight into the interaction between the RNA helicase CGH-1 and EDC-3 and its implications” (Scientific Reports, 2021)
Where a chain is given by its changes, count along the chain named. No end group written: not given here.

T1: CGH-1_248-420^4A (Caenorhabditis elegans, UniProt Q95YF3, C270A/H269A/L274A/T273A)
T1 construct: the cDNA fragments encoding CGH-1 RecA2 (residues 248–420); made in house; host or cells: E. coli Gold (DE3)
T1 sequence (Q95YF3 248-420 H269A/C270A/T273A/L274A limits assumed): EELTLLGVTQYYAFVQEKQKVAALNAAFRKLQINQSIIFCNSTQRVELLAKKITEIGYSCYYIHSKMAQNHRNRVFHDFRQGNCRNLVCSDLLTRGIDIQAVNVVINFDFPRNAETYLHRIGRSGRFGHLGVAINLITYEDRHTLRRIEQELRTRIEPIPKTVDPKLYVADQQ

T2: CGH-1_248-420^WT (Caenorhabditis elegans, UniProt Q95YF3)
T2 construct: the cDNA fragments encoding CGH-1 RecA2 (residues 248–420); made in house; host or cells: E. coli Gold (DE3)
T2 sequence (Q95YF3 248-420): T1 sequence (Q95YF3 248-420 H269A/C270A/T273A/L274A limits assumed) with A22H, A23C, A26T, A27L

B1: CAR-1_184–268: recombinant CAR-1 FDF-TFG (residues 184–268) (protein)
chain: LKFESDFDFEKANEKFQEVLVDNLEKLNIEDKAEPEVEEKKDAAFYDKKTSFFDNISCESLEKAEGKTGRPDWKKERETNQETFG
modifications: left off: His tag (from the modified vector pET-28a), end not stated, state not stated

Assays:
[1] = molecular target: T1, CGH-1_248-420^4A; assay: ITC binding to CGH-1_248–420 4A (H269A, C270A, T273A, L274A); parameters: species or system C. elegans; settings: CGH-1 4A vs WT
Method: (§1) Expression plasmids regarding CGH-1 and CAR-1 were constructed as previously described. In brief, the cDNA fragments encoding CGH-1 RecA2 (residues 248–420), CAR-1 FDF-TFG (residues 184–268) were amplified by PCR from C. elegans genome library and cloned into the NdeI and XhoI site of a modified pET-28a (Novagen) vector (p28a), in which a thrombin protease cleavage site was removed.
(§2) CGH-1 protein expression and purification were performed described as in our most recent paper. In brief, proteins were expressed in E. coli Gold (DE3) strain (Novagen). […] Cells were resuspended in Buffer A (20 mM Tris–HCl, pH 7.5, 1 M NaCl), and then lysed using high pressure at 4 °C. Proteins were initially purified by Ni-chelating resin (Qiagen), and further purified by size exclusion chromatography (SEC) on a Superdex 75 column (GE healthcare) in Buffer A. The purified proteins were dialyzed into Buffer B (20 mM Tris–HCl, pH 7.5, 150 mM NaCl).
(§3) A peptide containing the C. elegans EDC-3 FDF fragment (residues 235–271) and PATR-1 fragment (residues 30–67) were synthesized from GL Biochem (Shanghai, China) Co., Ltd, respectively. Stock solutions of peptide were prepared in Buffer B described above, and were adjusted to pH 7.5 ± 0.02 for subsequent experiments.
(§4) ITC assays were performed as previously described. In brief, it was carried out on a MicroCal PEAQ-ITC (Malvern) at 20 °C with the following settings: reference power, 5 μcal/s; initial delay, 60 s; stir speed, 750 rpm; spacing time, 120 s. Proteins (or its mutants) and peptides were adjusted to 0.05 mM and 0.5 mM, respectively. Experiments were initialed by injection of 1 μl each of peptide into the sample cell (200 μl) filled with protein (or its mutants) solution, followed by 18 injections of 2 μl. The ITC data were fitted with a one-binding-site model using the Origin analysis software.

[2] = molecular target: T3, CGH-1_248-420^E396A (Caenorhabditis elegans, UniProt Q95YF3, E396A); assay: ITC binding to CGH-1_248–420 E396A; parameters: species or system C. elegans; settings: 20 °C
T3 construct: the cDNA fragments encoding CGH-1 RecA2 (residues 248–420); made in house; host or cells: E. coli Gold (DE3)
Method: as §1, §2, §3
(§5) ITC assays were performed as previously described. […]

[3] = test system: CGH-1_248–420 mutants; assay: ITC binding to several CGH-1_248–420 single mutants; parameters: species or system C. elegans; settings: substitution of each of Phe261, Gln266, His269 with Ala
Method: as §1, §2, §3, §5

[4] = molecular target: T4, CGH-1_248-420^K277E (Caenorhabditis elegans, UniProt Q95YF3, K277E); assay: ITC binding to CGH-1_248–420 K277E; parameters: species or system C. elegans; settings: 20 °C
T4 construct: the cDNA fragments encoding CGH-1 RecA2 (residues 248–420); made in house; host or cells: E. coli Gold (DE3)
Method: as §1, §2, §3, §5

[5] = molecular target: T2, CGH-1_248-420^WT; assay: ITC binding to CGH-1_248–420 WT; parameters: species or system C. elegans; settings: for − TΔS: 20 °C, pH 7.5, 150 mM NaCl
Method: as §1, §2, §3, §4

[6] = molecular target: T5, CGH-1_248-420^Q266A (Caenorhabditis elegans, UniProt Q95YF3, Q266A); assay: ITC binding to CGH-1_248–420 Q266A; parameters: species or system C. elegans; settings: 20 °C, pH 7.5, 150 mM NaCl, CGH-1 Q266A
T5 construct: the cDNA fragments encoding CGH-1 RecA2 (residues 248–420); made in house; host or cells: E. coli Gold (DE3)
Method: as §1, §2, §3, §5

[7] = molecular target: T6, CGH-1_248-420^H269A (Caenorhabditis elegans, UniProt Q95YF3, H269A); assay: ITC binding to CGH-1_248–420 H269A; parameters: species or system C. elegans; settings: 20 °C, pH 7.5, 150 mM NaCl, CGH-1 H269A
T6 construct: the cDNA fragments encoding CGH-1 RecA2 (residues 248–420); made in house; host or cells: E. coli Gold (DE3)
Method: as §1, §2, §3, §5

[8] = molecular target: T7, CGH-1_248-420^F261A (Caenorhabditis elegans, UniProt Q95YF3, F261A); type: binding, C. elegans; settings: ITC, 20 °C, pH 7.5, 150 mM NaCl; CGH-1 F261A
T7 construct: the cDNA fragments encoding CGH-1 RecA2 (residues 248–420); made in house; host or cells: E. coli Gold (DE3)
Method: as §1, §2, §3, §4

[9] = molecular target: T8, CGH-1_248-420^K277A (Caenorhabditis elegans, UniProt Q95YF3, K277A); type: binding, C. elegans; settings: ITC, 20 °C
T8 construct: the cDNA fragments encoding CGH-1 RecA2 (residues 248–420); made in house; host or cells: E. coli Gold (DE3)
Method: as §1, §2, §3, §4

[10] = molecular target: T9, CGH-1_248-420^R393A (Caenorhabditis elegans, UniProt Q95YF3, R393A); type: binding, C. elegans; settings: ITC, 20 °C
T9 construct: the cDNA fragments encoding CGH-1 RecA2 (residues 248–420); made in house; host or cells: E. coli Gold (DE3)
Method: as §1, §2, §3, §4

[11] = test system: CGH-1_248–420 binding to GST-EDC-3_230–566; assay: GST-pulldown competition, CGH-1_248–420 binding to GST-EDC-3_230–566; parameters: species or system C. elegans; settings: PBS, 2 h, same amount of CAR-1_184–268 and CGH-1_248–420 (50 μg)
Method: To investigate whether CAR-1_184–268 can affect CGH-1_248–420 binding to EDC-3_230–566, approximate 100 μg GST-tagged EDC-3_230–566 was incubated with GST resin, followed by three times of wash in PBS. The resin was then incubated with 50 μg CGH-1_248–420 in the absence or presence of the same amount of CAR-1_184–268 for 2 h, followed by five times of PBS wash, and captured proteins were finally analyzed as described above.
To investigate whether C. elegans PATR-1 peptide will affect the CGH-1 binding to GST-tagged EDC-3_230–566 protein, approximate 100 μg GST-tagged EDC-3_230–566 was incubated with GST resin, followed by three times of wash in PBS. The resin was then incubated with 50 μg CGH-1_248–420 without PATR-1 peptide (0 μM) or with varied concentration of PATR-1 peptide (12.5, 25, or 50 μM) for 2 h, and was washed five times in PBS. The captured proteins in resin were finally heated and analyzed using 12% SDS-PAGE.

T3 sequence (Q95YF3 248-420 E396A): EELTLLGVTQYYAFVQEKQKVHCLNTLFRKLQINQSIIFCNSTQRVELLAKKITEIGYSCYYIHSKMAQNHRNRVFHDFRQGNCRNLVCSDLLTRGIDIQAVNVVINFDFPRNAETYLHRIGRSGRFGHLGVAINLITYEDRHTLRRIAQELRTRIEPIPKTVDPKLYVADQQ
T8 sequence (Q95YF3 248-420 K277A): as the sequence (Q95YF3 248-420 E396A) above, with K30A, A149E counted along it
T4 sequence (Q95YF3 248-420 K277E): as the sequence (Q95YF3 248-420 E396A) above, with K30E, A149E counted along it
T9 sequence (Q95YF3 248-420 R393A): as the sequence (Q95YF3 248-420 E396A) above, with R146A, A149E counted along it
T7 sequence (Q95YF3 248-420 F261A): as the sequence (Q95YF3 248-420 E396A) above, with F14A, A149E counted along it
T5 sequence (Q95YF3 248-420 Q266A): as the sequence (Q95YF3 248-420 E396A) above, with Q19A, A149E counted along it
T6 sequence (Q95YF3 248-420 H269A): as the sequence (Q95YF3 248-420 E396A) above, with H22A, A149E counted along it

Molecule	KD(mut) / KD(wt) ([1]; 20 °C)	binding affinity compared to wildtype (in words) [1]	binding affinity compared to wildtype (in words) ([1]; listed as EDC-3 peptide)	KD(mut) / KD(wt) ([2]; CGH-1 E396A vs WT)	− TΔS ([2]; pH 7.5, 150 mM NaCl, CGH-1 E396A)	weakening of binding affinity, factor vs WT [3]	KD(mut) / KD(wt) ([4]; CGH-1 K277E vs WT)	− TΔS ([4]; pH 7.5, 150 mM NaCl, CGH-1 K277E)	Kd [5]	− TΔS ([5]; ITC, CGH-1_248–420 WT)	binding affinity of EDC-3 FDF-FEK motif relative to corresponding region of CAR-1 (by KD) ([5]; ITC, CGH-1_248–420, 0.34 μM (this work) vs 43 μM (ref 17))	binding affinity relative to CAR-1_184–268 (by KD) ([5]; ITC, CGH-1_248–420 WT, 0.34 μM vs 3.03 μM)	− TΔS [6]	− TΔS [7]	− TΔS [8]	− TΔS ([9]; pH 7.5, 150 mM NaCl, CGH-1 K277A)	KD(mut) / KD(wt) ([9]; CGH-1 K277A vs WT)	− TΔS ([10]; pH 7.5, 150 mM NaCl, CGH-1 R393A)	KD(mut) / KD(wt) ([10]; CGH-1 R393A vs WT)	effect on binding of CGH-1_248–420 to EDC-3_230–566 [11]
LADPIDFDLDSDFDFAENLKLFEKDENDDQYYETVEK [EDC-3_235–271]	~ 25.7	dramatically impaired the binding affinity	dramatically disrupted the interaction	~ 2.5	7.92 kcal/mol	3.4–7.5	~ 17.5	4.48 kcal/mol	340 ± 20 nM	8.94 kcal/mol	> 126 times	approximately ninefold stronger	4.34 kcal/mol	4.97 kcal/mol	6.17 kcal/mol	7.74 kcal/mol	~ 8.1	9.68 kcal/mol	~ 6.1	–
B1	–	–	–	–	–	–	–	–	–	19.6 kcal/mol	–	–	–	–	–	–	–	–	–	little or no effect
